# According to US11149027B2, “Heterocyclic compound” (Sumitomo Chemical Company, Limited, priority 2016, dated 2021):
# Experiments:
# [1] = test system: brown planthoppers (Nilaparvata lugens); test: Test Example 4: root uptake by rice seedling from diluted solution, brown planthoppers; format: in vivo; conditions: 1000 ppm, 5 mL diluted solution under rice seedling, third instar larvae released after 7 days, examined after 6 days
# Protocol: (§1) Test compounds are made to a formulation according to a similar method to that described in the Formulation example 5, and thereto is added water to prepare a diluted solution containing a prescribed concentration of the test compound.
# The diluted solution 5 mL is added to one cup, and Rice (Oryza sativa) seedling (on the developmental stage of the second true leaf) is planted in the other cup with a hole on the bottom and the other cup is placed on the cup. After 7 days, 20 brown planthoppers (Nilaparvata lugens) at the third instar larval stage are released onto the seedling. After 6 days, the number of the surviving insects is examined, and the mortality is calculated by the following equation. Mortality (%)={1−Number of surviving insects/20}×100
# [2] = test system: houseflies (Musca domestica); test: Test Example 10: treated filter paper with sucrose, houseflies; format: in vivo; conditions: 500 ppm, 0.7 ml on filter paper with sucrose, female adult, after 24 hours
# Protocol: as §1
# A filter paper having a diameter of 5.5 cm in diameter is spread on the bottom of the cup, and 30 mg of sucrose is placed on the filter paper, and then 0.7 ml of the diluted solutions are added dropwise to the filter paper. Ten (10) houseflies (Musca domestica) female adult are released into the cup. After 24 hours, the number of the died insects is counted, and the mortality of insects is calculated by the following equation. Mortality (%)=(Number of died insects/test insects)×100
Compound,mortality of insects [1] [%],mortality of insects [2] [%]
CCS(=O)(=O)c1cccnc1-c1ccc(-n2cc(C(F)(F)F)cn2)nn1 [compound 9],≥ 90,100
CCS(=O)(=O)c1cccnc1-c1ccc(-n2cnc(C(F)(F)F)n2)nn1 [compound 4],,100
CCS(=O)(=O)c1cccnc1-c1ccc(-n2ccc(C(F)(F)F)n2)nn1 [compound 2],,100
CCS(=O)(=O)c1cccnc1-c1ccc(-n2cnc(C(F)(F)F)c2)nn1 [compound 7],,100
